In patent US20040186170A1, “Benzofuran derivatives, pharmaceutical composition containing the same, and a process for the preparation of the active ingredient” (EGIS GYOGYSZERGYAR, priority 1998, published 2004):
Structures can show the parent of a compound that is named as a salt. Where two headings read alike, the source gives them in different places.

Tests used:
[1] = tested on: isolated perfused rat heart; experiment: TTC prolonging effect in isolated Langendorff rat hearts (global ischemia)
Experimental: Measurement of the cardioprotective effect in ischemic rat heart (Langendorff) preparation
The time lapsed after starting global ischemia until the beginning of contracture (i.e. time to contracture=TTC) is prolonged by several cardioprotective compounds, thus, the effectiveness of the compounds can be examined by measuring TTC.
Male Sprague-Dawley rats weighing 300 to 350 g were injected with 2500 IU (0.5 ml) of heparin i.p. and 10 minutes later the animals were anaesthetized with sodium pentobarbital/5-ethyl-5-(1-methylbutyl)-2,4,6(1H,3H,5H)-pyrimidinetrione sodium salt/ in a dose of 60 mg/kg i.p. The heart was quickly excised, and the aorta was connected to a cannula fixed to a Langendorff apparatus. The heart was perfused at a constant pressure (8000 Pa) with a modified carbogenized Krebs-Henseleit solution. The composition of the solution was the following (in mM): NaCl 118, KCl 4.7, MgSO4 1.6, CaCl2 2.5, NaHCO3 24.88, KH2PO4 1.18, EDTA 0.5, glucose 11. Partial CO2 pressure and pH of the solution were maintained within the physiological limits (pCO2 4000-4650 Pa, pH=7.3-7.45).
A hole was cut in the wall of the left atrium and a water-filled plastic balloon attached to a metal cannula was inserted into the left ventricle. End diastolic pressure of the left ventricle was set to a value between 666-1333 Pa during the equilibration period by changing the volume of the liquid in the balloon, however, later it was not modified.
After a 20 minutes' equilibration period, the hearts were perfused for 10 minutes with the vehicle (0.04% of dimethyl sulfoxide), in case of the control group, or with a solution of the test substance at 10^−6 or 10^−5 M concentration, in case of the treated groups. The activity of the test compound was not examined further when, at the end of the 10 minutes' period, the systolic pressure of the left ventricle was reduced by more than 20%, compared to the control value determined before the treatment.
Global ischemia was initiated by completely shutting off the perfusate flow and carbogenization for 25 minutes. The time period from the beginning of ischemia until the formation of myocardial contracture i.e. an increase of 666 Pa in left ventricular end diastolic pressure (TTC) was measured.
3 parallel experiments were performed with the test compounds at each concentration and parameters of 3 additional vehicle (0.04% dimethyl sulfoxide) treated hearts were measured along with the test substance.
Individual TTC values were averaged, and the effect of the test substances was expressed as a percentage change compared to the vehicle treated group. […] As a reference substance, lemakalim i.e. (3S)-trans-3,4-dihydro-3-hydroxy-2,2-dimethyl-4-(2-oxo-1-pyrrolidinyl)-2H-1-benzpyrane-6-carbonitrile was used.

5-HT1A receptor = biological target: T1, 5-HT1A receptor (Rattus norvegicus, UniProt P19327); experiment: 5-HT1A receptor binding assay
T1 sequence (P19327 1-422): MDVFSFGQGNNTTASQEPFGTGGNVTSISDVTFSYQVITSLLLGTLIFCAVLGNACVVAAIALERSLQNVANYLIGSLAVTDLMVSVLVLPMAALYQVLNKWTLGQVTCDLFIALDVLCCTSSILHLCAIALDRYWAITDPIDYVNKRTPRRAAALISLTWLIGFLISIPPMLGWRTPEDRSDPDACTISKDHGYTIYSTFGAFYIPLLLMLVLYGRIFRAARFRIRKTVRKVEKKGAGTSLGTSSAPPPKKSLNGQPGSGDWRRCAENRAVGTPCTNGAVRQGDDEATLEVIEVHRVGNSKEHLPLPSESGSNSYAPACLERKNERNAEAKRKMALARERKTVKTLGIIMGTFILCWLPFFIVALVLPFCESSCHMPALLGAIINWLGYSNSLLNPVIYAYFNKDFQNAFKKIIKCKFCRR

Male Sprague-Dawley rats = experiment: Elevated plus-maze test on rats; format: in vivo, rat; conditions: for MED (in mg/kg) p.o.: 60 minutes prior to the test, based on the time spent in the open arms
Experimental: Elevated Plus-Maze Test on Rats
The test was carried out according to a modified method of Pelow et al./J. Neurosci. Methods, 14, 149 (1985)/. The elevated plus-maze consists of two open and two 40 cm wall enclosed arms of the same size (50×15 cm) arranged in the shape of a cross. The arms of the same type are opposite to each other. The junction of the four arms forms a central square area (15×15 cm). The apparatus is made of a wooden material elevated to a height of 50 cm and illuminated by a dim light from above. Male Sprague-Dawley rats weighing 220 to 260 g were used for the experiment.
The rats were treated with the test or reference compounds 60 minutes prior to the test. The animals were then placed onto a central square area and were subjected to the test for 5 minutes. The following 4 different parameters were determined:
time spent in the open arms;
time spent in the closed arms;
number of entries into the open arms;
number of entries into the closed arms.
A compound was considered to be effective where significant increase was found either in the time spent in the open arms (in sec) or in the number of entries into the open arms when compared to the control animals (in percentage). Minimum effective doses (MED) were determined based on the time spent in the open arms for each compound examined. Buspirone was used as the reference material.

Male Wistar rats = experiment: Anxiolytic effect, Vogel's conflict test; conditions: half an hour before the examination, tolerated number of electric shocks
Experimental: Determination of the Anxiolytic Effect on the Basis of Vogel's Conflict Test
The anxiolytic effect was examined by the method of Vogel et al./Vogel, J. R., Beer, B., Clody, D. E., Psychopharmacologia (Berl.), 21, 1 (1971)/. Male Wistar rats weighing 180 to 200 g were left to be thirsty for 48 hours and starved for 24 hours before the test. The substances to be examined and the carriers, respectively, were administered to the animals half an hour before the examination. In the test chamber, the rats were allowed to drink from the drinking tube protruding into the chamber. Following every 20th lick, the apparatus emitted an electric shock of 0.7 mA through the drinking tube. During the test lasting for 5 minutes, the number of those electric shocks was registered which the animals accepted in order to quench their thirst. The effect of the compounds was expressed as the increase of the tolerated number of electric shocks in percentage.
Meprobamate/2-methyl-2-propyltri-methylenecarbamate/ was used as the reference substance.

[2] = 10^−5 M, time to contracture, change compared to the vehicle treated group
[3] = 10^−6 M, time to contracture, change compared to the vehicle treated group

SMILES	TTC change (in %) at 10^−5 M [1, 2]	TTC change (in %) at 10^−6 M [1, 3]	TTC change (in %) at 10^−6 M [1]	Ki (5-HT1A receptor)	further results
CC1(C)Cc2cccc(OCC(O)CN3CC=C(c4cccc(C(F)(F)F)c4)CC3)c2O1.Cl (stereo not drawn) [Example 8, 1-/3-(2,2-Dimethyl-2,3-dihydrobenzofuran-7-yloxy)-2-hydroxypropyl/-4-(3-trifluoromethyl-phenyl)-1,2,3,6-tetrahydropyridine hydrochloride]	90%	43%			
CC1(C)Cc2cccc(OCC(O)CN3CCC(O)(c4cccc(C(F)(F)F)c4)CC3)c2O1 (stereo not drawn) [Example 9, 1-/3-(2,2-Dimethyl-2,3-dihydrobenzofuran-7-yloxy)-2-hydroxypropyl/-4-hydroxy-4-(3-tri-fluoromethylphenyl)piperidine hydrochloride]			90%	20 nM	TTC prolongation compared with lemakalim [1]: surpasses remarkably also the effect of lemakalim
CC1(C)Cc2cccc(OCC(O)CN3CCC(O)(c4ccc(Cl)cc4)CC3)c2O1 (stereo not drawn) [Example 14, 1-/3-(2,2-Dimethyl-2,3-dihydrobenzofuran-7-yloxy)-2-hydroxypropyl/-4-hydroxy-4-(4-chloro-phenyl)piperidine]				10 nM	
CC1(C)Cc2cccc(OCC(O)CN3CCC(O)(c4ccc(F)cc4)CC3)c2O1 (stereo not drawn) [Example 16, 1-/3-(2,2-Dimethyl-2,3-dihydrobenzofuran-7-yloxy)-2-hydroxypropyl/-4-hydroxy-4-(4-fluoro-phenyl)piperidine]			5%	3 nM	MED (in mg/kg) p.o. (Male Sprague-Dawley rats): 1 mg/kg; TTC change (in %) at 10^−5 M [1]: 78%
CC1(C)Cc2cccc(OCC(O)CN3CCC(O)(c4ccccc4)CC3)c2O1 (stereo not drawn) [Example 20, 1-/3-(2,2-Dimethyl-2,3-dihydrobenzofuran-7-yloxy)-2-hydroxypropyl/-4-hydroxy-4-phenyl-piperidine hydrochloride]			18%	6 nM	TTC change (in %) at 10^−5 M [1]: 65%
COc1ccc2cc(C3CCN(CC(O)COc4cccc5c4OC(C)(C)C5)CC3)ccc2c1.Cl (stereo not drawn) [Example 23, 1-/3-(2,2-Dimethyl-2,3-dihydrobenzofuran-7-yloxy)-2-hydroxypropyl/-4-(6-methoxynaphth-2-yl)piperidine hydrochloride]					MED (in mg/kg) p.o. (Male Sprague-Dawley rats): 3 mg/kg
CC1(C)Cc2cccc(OCC(O)CN3CCC(O)(c4cccc(Cl)c4)CC3)c2O1 (stereo not drawn) [Example 24, 1-/3-(2,2-Dimethyl-2,3-dihydrobenzofuran-7-yloxy)-2-hydroxypropyl/-4-hydroxy-4-(3-chloro-phenyl)-piperidine hydrochloride]			47%	12 nM	MED (in mg/kg) p.o. (Male Sprague-Dawley rats): 3 mg/kg
COc1cccc(C2(O)CCN(CC(O)COc3cccc4c3OC(C)(C)C4)CC2)c1 (stereo not drawn) [Example 25, 1-/3-(2,2-Dimethyl-2,3-dihydrobenzofuran-7-yloxy)-2-hydroxypropyl/-4-hydroxy-4-(3-methoxyphenyl)-piperidine hydrochloride]			2%	0.7 nM	anxiolytic effect compared with buspirone (Male Sprague-Dawley rats; in words): superior by one order of magnitude to buspirone; MED (in mg/kg) p.o. (Male Sprague-Dawley rats): 0.3 mg/kg; TTC change (in %) at 10^−5 M [1]: 59%
COc1ccc(C2(O)CCN(CC(O)COc3cccc4c3OC(C)(C)C4)CC2)cc1 (stereo not drawn) [Example 26, 1-/3-(2,2-Dimethyl-2,3-dihydrobenzofuran-7-yloxy)-2-hydroxypropyl/-4-hydroxy-4-(4-methoxyphenyl)-piperidine]			43%	3 nM	
Cc1ccc(C2(O)CCN(CC(O)COc3cccc4c3OC(C)(C)C4)CC2)cc1 (stereo not drawn) [Example 30, 1-/3-(2,2-Dimethyl-2,3-dihydrobenzofuran-7-yloxy)-2-hydroxypropyl/-4-hydroxy-4-(4-methyl-phenyl)piperidine hydrochloride]				5 nM	
CC1(C)Cc2cccc(OCC(O)CN3CCC(C#N)(c4ccccc4)CC3)c2O1.Cl (stereo not drawn) [Example 41, 1-/3-(2,2-Dimethyl-2,3-dihydrobenzofuran-7-yloxy)-2-hydroxypropyl/-4-cyano-4-phenyl-piperidine hydrochloride]			32%		TTC change (in %) at 10^−5 M [1]: 53%
CC1(C)Cc2cccc(OCC(O)CN3CCN(c4ccc(F)cc4)CC3)c2O1 (stereo not drawn) [Example 63, 1-/3-(2,2-Dimethyl-2,3-dihydrobenzofuran-7-yloxy)-2-hydroxypropyl/-4-(4-fluorophenyl)-piperazine]	111%	−3%			
CC1(C)Cc2cccc(OCC(O)CN3CCN(c4cccc(F)c4)CC3)c2O1 (stereo not drawn) [Example 66, 1-/3-(2,2-Dimethyl-2,3-dihydrobenzofuran-7-yloxy)-2-hydroxypropyl/-4-(3-fluorophenyl)-piperazine]	66%	5%			
COc1ccc(N2CCN(CC(O)COc3cccc4c3OC(C)(C)C4)CC2)cc1 (stereo not drawn) [Example 68, 1-/3-(2,2-Dimethyl-2,3-dihydrobenzofuran-7-yloxy)-2-hydroxypropyl/-4-(4-methoxyphenyl)-piperazine]	43%	0%			MED in mg/kg ip. (Male Wistar rats): 20 mg/kg
CC1(C)Cc2cccc(OCC(O)CN3CCN(c4ccc(Cl)cc4)CC3)c2O1 (stereo not drawn) [Example 73, 1-/3-(2,2-Dimethyl-2,3-dihydrobenzofuran-7-yloxy)-2-hydroxypropyl/-4-(4-chlorophenyl)-piperazine]	49%	19%			
COc1cccc(N2CCN(CC(O)COc3cccc4c3OC(C)(C)C4)CC2)c1.Cl.Cl (stereo not drawn) [Example 76, 1-/3-(2,2-Dimethyl-2,3-dihydrobenzofuran-7-yloxy)-2-hydroxypropyl/-4-(3-methoxyphenyl)-piperazine dihydrochloride]	80%	25%			
O=C1CC2(CCCC2)CC(=O)N1CCCCN1CCN(c2ncccn2)CC1 [buspirone, reference compound]					MED (in mg/kg) p.o. (Male Sprague-Dawley rats): 3 mg/kg
CC1(C)Oc2ccc(C#N)cc2[C@@H](N2CCCC2=O)[C@@H]1O [lemakalim, (3S)-trans-3,4-dihydro-3-hydroxy-2,2-dimethyl-4-(2-oxo-1-pyrrolidinyl)-2H-1-benzpyrane-6-carbonitrile, reference compound]	55%	20%			
CCCC(C)(COC(N)=O)COC(N)=O [meprobamate, 2-methyl-2-propyltri-methylenecarbamate, reference compound]					MED in mg/kg ip. (Male Wistar rats): 50 mg/kg
